Experimental data as given in patent US12396983B2, “Composition comprising rilmenidine compound as active ingredient for treatment of fragile X syndrome or related developmental disability” (NEUROVENTI, priority 2020, dated 2025).

Tests used:
[1] = tested on: Fmr1-deficient animal model; test: three-chamber test, sociability in fragile X syndrome animal model; format: in vivo; settings: rilmenidine intraperitoneally (1 mg/kg / 50 ug/kg printed), 30 minutes after administration, FIG. 1
Procedure: Purchased a 5-week-old Fmr 1 knockout mouse (Jackson Laboratory, USA) weighing about 22 g to 24 g, and acclimatized to an environment with a temperature of 23±2° C. and humidity of 55±10% and a light-dark cycle of 12 hours while allowing them to freely consume water and feed. After breeding (Konkuk University Laboratory Animal Center), they were used for experiments. For all animals, wild-type (WT) with normal FMRP expression and male KO mice lacking FMRP (Fragile X mental retardation protein) expression (which induces Fragile X Syndrome (FXS)) were used. Dosing and experiments were performed according to the age of the week. Dosing was performed at the same time. Behavioral experiments were conducted 30 minutes after administration. It was divided into groups administered with 1 mg/kg each of rilmenidine (Sigma Aldrich) in FMRP expression-deficient knock-out (Knock-Out) mice, wild-type (Wild Type) mice, and 0.25 DMSO in FMRP expression-deficient knock-out mice (6 mice per group). For the drug administration group, rilmenidine was dissolved in 0.25% DMSO and then administered intraperitoneally at a dose of 50 ug/kg. Meanwhile, 0.25% DMSO was intraperitoneally administered to the control group. […] The time the test mouse explored each stimulus mouse was measured and expressed as %.

[2] = tested on: animal model treated with MK-801 in wild-type mice; test: pre-pulse suppression (startle response) test in MK-801 treated animal model; format: in vivo, mouse; settings: wild-type mice treated with MK-801 and then rilmenidine intraperitoneally, FIG. 2
Procedure: The startle response was confirmed in an animal model treated with MK-801 in wild-type mice. Mice were divided into groups, and 0.9% physiological saline (saline solution), rilmenidine, or a positive control drug (aripiprazole) was intraperitoneally administered to each group. Then, sensorimotor gating was evaluated through a pre-wave suppression test (converted using Equation 1). […] Pre-pulse suppression (%)=100−[(startle response to pre-stimulus+stimulus)/(startle response to stimulus)]*100 [Equation 1] Confirmation of Cognitive Improvement Effect of Rilmenidine

[3] = tested on: animal model treated with MK-801 in wild-type mice; test: novel object recognition test in MK-801 treated animal model; format: in vivo, mouse; settings: wild-type mice treated with MK-801 and then rilmenidine (0.3 mg/kg), test 24 hours after training, FIG. 3
Procedure: The cognitive improvement effect of rilmenidine was confirmed using an animal model treated with MK-801 in wild-type mice. The experiment was a novel object recognition test, where two identical objects were placed in the same location and trained, and 24 hours later, one identical object (familiar) and the other new object (novel) were put in, and the cognitive ability of the animal was tested by evaluating whether they could distinguish between familiar and new objects.

[4] = tested on: animal model lacking Cntnap2; test: three-chamber test, sociability index in Cntnap2-deficient autism animal model; format: in vivo, mouse; settings: Cntnap2-deficient mice treated with rilmenidine, FIG. 4
Procedure: To confirm the therapeutic effect of rilmenidine on social deficits, one of the phenotypes of developmental disorders, a three-chamber test was performed using an animal model lacking Cntnap2. The sociability index of FIG. 4 represents a value obtained by dividing stranger (retention time for a mouse) by empty (retention time for an empty space).

[5] = tested on: animal model lacking Cntnap2; test: three-chamber test, social preference (novel vs familiar mouse) in Cntnap2-deficient autism animal model; format: in vivo; settings: Cntnap2-deficient mice treated with rilmenidine, FIG. 5
Procedure: To confirm the therapeutic effect of rilmenidine on social deficits, one of the phenotypes of developmental disorders, a three-chamber test was performed using an animal model lacking Cntnap2. FIG. 5 is a result of evaluating whether or not the time spent with a novel mouse is longer than that of a familiar mouse after exploring a stimulus mouse (familiar) for 10 minutes in the experimental animal, and after adding a new stimulus mouse (novel) together for 10 minutes. In this case, the old mouse is called familiar, and the new mouse is called novel. […] Experimental results were expressed as a preference index by measuring the time the test mouse explores each mouse or the sniffing time to each mouse. The higher the preference index, the more time spent with the novel mouse than with the familiar mouse, or the more time spent sniffing with the novel mouse than with the familiar mouse. […] Through this, it was confirmed that rilmenidine treatment can improve sociability (FIG. 5).

## C1COC(NC(C2CC2)C2CC2)=N1 [rilmenidine, N-(dicyclopropylmethyl)-4,5-dihydro-1,3-oxazol-2-amine]
[1]
  time the test mouse explored novel vs familiar stimulus mouse (sociability): more time was spent with the novel mouse than with the familiar mouse
[2]
  pre-pulse suppression: the reduced pre-pulse suppression was restored
[3]
  ability to distinguish novel object from familiar object (cognitive improvement): the ability to distinguish novel objects was improved
[4]
  sociability index: retention time for mouse (stranger) vs empty space: the retention time for the mouse was longer than the retention time for the empty space
[5]
  preference index: sniffing time to novel mouse vs familiar mouse: sniffed more
  preference index: time spent with novel mouse vs familiar mouse: spent more time
